Reference: US20230072421A1, “TARGETED RADIOPHARMACEUTICALS FOR THE DIAGNOSIS AND TREATMENT OF PROSTATE CANCER” (Bayer AS, priority 2019, published 2023)

Key:
LNCaP cells = assay: Cell proliferation assay (CellTiter-Glo, 5-day exposure), LNCaP; format: cell-based, human; conditions: compared to 1-PEG-227Th and 46-E 227Th
Protocol: Inhibition of cell proliferation of Thorium-227 labeled PMSA SMOL ligands was tested different prostate cancer cell lines, namely 22Rv1, VCaP, C4-2 (all from ATCC, Manassas, Va., USA) and LNCaP (DMSZ, Braunschweig). Cells were seeded using the following conditions in 384 well plates (Corning) in 30 μl of growth media at 4000 cells/well for VCaP cells and 1000 cells/well for 22Rv1, C4-2 and LNCaP cells.
Cells were cultivated an incubator at 37° C. and 5% C02 over night. On the following days cells were treated in triplicates with serial dilutions of PSMA-SMOLs labeled with Th-227 at a specific activity of 375 kBq/nmol (RCP>70% as assessed by iTLC analysis; compounds where RCP was between 50-70% in individual experiments are marked with an * in the table) using a D300e Digital Dispenser (Tecan). In sister plates cell viability at treatment start (d=0) was determined using CellTiter-Glo® assay (CTG, Promega, Madison, Wis., USA), by adding 30 μl per well CTG solution, incubation for 10 min and reading of Luminescence in a PheraStarFSX instrument (BMG Labtech). After a 5-day exposure in the presenced of test compounds, cell viability of treated or untreated control cells was determined again using CellTiter-Glo® assay (Promega, Madison, Wis., USA). […] The DRC software is a Biobook Spreadsheet that was developed by Bayer AG and Bayer Business Services on the IDBS E-Workbook Suite platform (IDBS: ID Business Solutions Ltd., Guildford, UK).

[1] = molecular target: T1, PSMA-expressing LNCaP cells (Homo sapiens, UniProt Q04609); assay: Internalization assay (membrane bound and internalized Th-227); format: cell-based
T1 construct: PSMA-expressing LNCaP cells; endogenous in cells; host or cells: LNCaP
Protocol: For internalization assays 24 well plates (#3526, Corning) were coated with 200 μl Poly-L-Lysine (0.1 mg/ml, #3438-100-01, Fa. Cultrex) per well for 2 h at 37° C. […] Cells were incubated at 37° C. and 5% CO2 over night. On the following day 400 μl of the media were removed and a total of 200 μl growth medium added supplemented with PSMA-SMOLs labeled with Th-227 at 375 kBq/nmol in triplicates. Radiochemical purity of the labeling was analyzed by instant thin layer chromatography and found to be above 70% for all compounds used. The final concentration of radiolabeled SMOLs was in the test wells was 10 nM. Cells were incubated for 30 min or 2 h. After the incubation time supernatants were taken off and cells washed with PBS. Thereafter cells were washed twice with 0.2 ml 50 mM Glycine-HCl buffer (#55097, Sigma Aldrich) and once with PBS and the washing solutions combined in counting vials (#TK75-018, Fa. Corning) and subjected to gamma counting (1470 Wizard automatic gamma counter, Wallac). The resulting counts were attributed to membrane bound radioactivity. Cells were then lysed with 500 μl 0.3N NaOH (#181691.1211, Fa. PanReac AppliChem ITW Reagents) followed by another wash with 500 μl PBS. The NaOH lysate as well as the final wash were combined in vials and subjected to gamma counting as described above. Measured radioactivity was attributed to internalized fraction. Results were calculated as fmol of Th-227 per/10^cells in the membrane bound and internalized fractions from triplicate values.

[2] = tested on: LNCaP human prostate cancer cells; assay: LNCaP xenograft efficacy study (T/C tumor area); format: in vivo, SCID mice; conditions: Example II; 750 kBq/kg weekly for 5 weeks; day 120
In short: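 SCID mice with testosterone pellet bearing s.c. flank LNCaP xenografts (5×10^6 cells in Matrigel) were treated i.v. with a defined radioactive dose once tumors reached 35-50 mm^2 (n=10/group). Tumor area (caliper, longest diameter × perpendicular) measured 2-3× weekly; T/C ratio calculated from tumor areas when vehicle group closed.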

[3] = Biodistribution study in LNCaP tumor-bearing mice (Th227 counted in organs); format: in vivo, SCID mice; conditions: 500 kBq/kg; for Th-227 in Blood / Th-227 in Femur bone / Th-227 in Kidneys / Th-227 in Liver / Th-227 in Spleen / Th-227 in Tumor / Th-227 in salivary glands: study b3004
Protocol: SCID mice were randomly assigned to experimental groups, ten animals per group (efficacy) or n=3-5 per time point of biodistribution study. At the initiation of the study, a testosterone pellet was subcutaneously transplanted, the animals were shaved, tattooed and each cage was labeled with the cage number, study number and number of animals per cage.
LNCaP human prostate cancer cells were cultured as described according to the supplier's protocols. Cells were harvested for transplantation in a subconfluent (70%) state. Animals were injected with 5×10^6 LNCaP cells suspended in 100% Matrigel subcutaneously into the flank of the mice.
Biodistribution study: When tumors reached a predetermined size in mice of ˜50 mm^2 animals were randomized into groups (n=3 animals/time point) and the radioactive compound was once applied intravenously. The i.v. application volume was 100 μl/mice.
At the predetermined time point, n=3 animals were sacrificed, the organs removed, weight and measured in a Germanium detector to count the Th227 in the sample.

[4] = 10 nM radiolabeled compound, Th-227 at 375 kBq/nmol, 30 min incubation, triplicates
[5] = 10 nM radiolabeled compound, Th-227 at 375 kBq/nmol, 2 h incubation, triplicates
[6] = comparison of % injected dose per gram tissue

T1 sequence (Q04609 whole entry): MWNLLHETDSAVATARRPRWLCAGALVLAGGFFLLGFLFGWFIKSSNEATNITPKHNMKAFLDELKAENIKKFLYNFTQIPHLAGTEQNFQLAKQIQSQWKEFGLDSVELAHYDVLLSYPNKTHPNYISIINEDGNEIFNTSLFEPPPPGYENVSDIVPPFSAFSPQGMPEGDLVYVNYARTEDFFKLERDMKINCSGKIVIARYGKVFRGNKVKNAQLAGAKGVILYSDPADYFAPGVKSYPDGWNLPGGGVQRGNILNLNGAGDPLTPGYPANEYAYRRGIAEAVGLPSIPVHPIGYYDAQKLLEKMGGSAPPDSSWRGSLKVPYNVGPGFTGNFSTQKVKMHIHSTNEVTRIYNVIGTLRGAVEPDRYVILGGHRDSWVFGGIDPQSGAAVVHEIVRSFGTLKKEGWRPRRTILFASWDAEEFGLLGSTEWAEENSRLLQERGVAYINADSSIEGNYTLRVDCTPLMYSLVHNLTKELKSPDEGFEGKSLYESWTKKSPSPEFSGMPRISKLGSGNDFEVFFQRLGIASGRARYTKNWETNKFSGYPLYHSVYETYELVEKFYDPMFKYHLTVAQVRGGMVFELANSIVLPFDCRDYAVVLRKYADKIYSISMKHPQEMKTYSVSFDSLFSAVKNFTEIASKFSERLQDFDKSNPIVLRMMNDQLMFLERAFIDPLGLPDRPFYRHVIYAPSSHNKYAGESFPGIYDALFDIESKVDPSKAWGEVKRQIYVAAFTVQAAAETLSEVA

## CC1=CC2=C3[O][227Th-5]45678([O]C9=C(C=C(C)N(CC(=O)O)C9=[O+]4)C(=O)NCCN(CCCN(CCNC(=O)C4=C([O]5)C(=[O+]6)N(CC(=O)O)C(C)=C4)CCNC(=O)C4=C([OH+]7)C(=[O+]8)N(CC(=O)NC[C@H]5CC[C@H](C(=O)N[C@@H](Cc6ccc7ccccc7c6)C(=O)NCCCC[C@H](NC(=O)N[C@@H](CCC(=O)O)C(=O)O)C(=O)O)CC5)C(C)=C4)CCNC2=O)[O+]=C3N1CC(=O)O [1-C monomer-227Th]
LNCaP cells
  antiproliferative activity on LnCap cells (in words): superior antiproliferative activity
[1]; [4]
  Internalized in LNCaP fmol/10^6 cells 30 min: 84 fmol/10^6 cells
  Membrane bound in LNCaP fmol/10^6 cells 30 min: 105 fmol/10^6 cells
[1]; [5]
  Internalized in LNCaP fmol/10^6 cells 2 h: 291 fmol/10^6 cells
  Membrane bound in LNCaP fmol/10^6 cells 2 h: 260 fmol/10^6 cells
[1]; after 30 min and 2 h, compared to 1-B-227Th bearing a DOTA chelator
  intracellular radioactivity on PSMA-expressing LNCaP cells (in words): increased intracellular radioactivity
[2]
  Tumor response: full response
[3]; [6]
  Accumulation in the tumor (in words): much higher accumulation in the tumor
  Background in blood, liver and spleen (in words): lower background compared to 1-F-227Th
[3]; 1 h
  Th-227 in Blood: 0.63 % ID Th-227/g organ
  Th-227 in Femur bone: 0.96 % ID Th-227/g organ
  Th-227 in Kidneys: 119.59 % ID Th-227/g organ
  Th-227 in Liver: 0.69 % ID Th-227/g organ
  Th-227 in Spleen: 4.69 % ID Th-227/g organ
  Th-227 in Tumor: 31.73 % ID Th-227/g organ
  Th-227 in salivary glands: 9.62 % ID Th-227/g organ
[3]; 24 h
  Th-227 in Blood: 0.03 % ID Th-227/g organ
  Th-227 in Femur bone: 1.08 % ID Th-227/g organ
  Th-227 in Kidneys: 72.59 % ID Th-227/g organ
  Th-227 in Liver: 0.35 % ID Th-227/g organ
  Th-227 in Spleen: 1.79 % ID Th-227/g organ
  Th-227 in Tumor: 16.36 % ID Th-227/g organ
  Th-227 in salivary glands: 1.41 % ID Th-227/g organ
[3]; 72 h
  Th-227 in Blood: 0.01 % ID Th-227/g organ
  Th-227 in Femur bone: 1.12 % ID Th-227/g organ
  Th-227 in Kidneys: 24.80 % ID Th-227/g organ
  Th-227 in Liver: 0.36 % ID Th-227/g organ
  Th-227 in Spleen: 0.76 % ID Th-227/g organ
  Th-227 in Tumor: 9.02 % ID Th-227/g organ
  Th-227 in salivary glands: 1.13 % ID Th-227/g organ
[3]; 168 h
  Th-227 in Blood: 0.00 % ID Th-227/g organ
  Th-227 in Femur bone: 1.28 % ID Th-227/g organ
  Th-227 in Kidneys: 12.66. % ID Th-227/g organ
  Th-227 in Liver: 0.33 % ID Th-227/g organ
  Th-227 in Spleen: 0.78 % ID Th-227/g organ
  Th-227 in Tumor: 6.20 % ID Th-227/g organ
  Th-227 in salivary glands: 1.23 % ID Th-227/g organ
[3]; 336 h
  Th-227 in Blood: 0.00 % ID Th-227/g organ
  Th-227 in Femur bone: 1.13 % ID Th-227/g organ
  Th-227 in Kidneys: 3.41 % ID Th-227/g organ
  Th-227 in Liver: 0.31 % ID Th-227/g organ
  Th-227 in Spleen: 0.70 % ID Th-227/g organ
  Th-227 in Tumor: 2.78 % ID Th-227/g organ
  Th-227 in salivary glands: 1.29 % ID Th-227/g organ
